Test systems include SK-OV-3; SK-MEL-2; HL-60; EKVX; OVCAR-3; RXF 393; NCI-H460; RPMI-8226; NCI/ADR-RES; OVCAR-5; M14; IGROV-1; A549; OVCAR-4; SK-MEL-28; MDA-MB-231; KM12; MCF7; A498.
Assay in all cases: inhibition of tumour cell growth, NCI panel, 48 h

We go through eight compounds from ChEMBL document CHEMBL1201862, “PubChem BioAssay data set” (2004).

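Test compounds were applied to cells in 96-well plates for 48 hours at 5 doses. GI50 is the concentration that inhibits growth by half.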 The source made the active and inactive calls. No stated cut-off is given here; in the data, active = GI50 up to about 1.1 µM and inactive = higher.

Regarding `CCOC(=O)/C=C/C1(CCOC(C)=O)CCCCC1`, the GI50 in the assay with SK-OV-3, in the assay with SK-MEL-2, in the assay on HL-60, in the assay with EKVX, in the assay on OVCAR-3 and with RXF 393 was > 10 µM (inactive) throughout. For the same compound, the GI50 with NCI-H460, in the assay on RPMI-8226, with NCI/ADR-RES, in the assay on OVCAR-5, in the assay with M14 and with IGROV-1 was > 10 µM (inactive) throughout. Besides, the GI50 with A549, in the assay with OVCAR-4, in the assay on SK-MEL-28, in the assay on MDA-MB-231, in the assay with KM12 and with MCF7 was > 10 µM (inactive) in each case.

On to `CCOC(=O)c1ccc(/N=c2/[nH]c3ccccc3s/c2=N/c2ccc(C(=O)OCC)cc2)cc1`, for which the GI50 with SK-OV-3 was > 100 µM (inactive); in the assay with SK-MEL-2, > 100 µM (inactive); in the assay on HL-60, > 100 µM (inactive); in the assay on A498, 82 µM (inactive); in the assay on EKVX it was > 100 µM (inactive); in the assay on RXF 393, > 100 µM (inactive). For the same compound, the GI50 in the assay with NCI-H460 is 40.6 µM (inactive); in the assay with RPMI-8226, > 100 µM (inactive); in the assay on NCI/ADR-RES, 88.9 µM (inactive); in the assay with OVCAR-5 it was > 100 µM (inactive); in the assay with IGROV-1 it was > 100 µM (inactive); in the assay on A549 it was 95.7 µM (inactive). Further, the GI50 in the assay with OVCAR-4 is 33.6 µM (inactive); in the assay on SK-MEL-28, > 100 µM (inactive); in the assay on MDA-MB-231, > 100 µM (inactive); in the assay on KM12, > 100 µM (inactive).

For the compound `CC1(C)C[C@H]2C3=CC[C@@H]4[C@@]5(C)CC[C@H](O)C(C)(C)[C@@H]5CC[C@@]4(C)[C@]3(C)C[C@@H](O)[C@@]23C[C@@H]1OC3=O`, the GI50 was > 100 µM (inactive) with SK-OV-3; > 100 µM (inactive) with SK-MEL-2; 37.1 µM (inactive) in the assay with HL-60; > 100 µM (inactive) with A498; > 100 µM (inactive) with EKVX; > 100 µM (inactive) with OVCAR-3. Besides, the GI50 is 70.3 µM (inactive) with NCI-H460; 65.5 µM (inactive) in the assay with RPMI-8226; 72.4 µM (inactive) in the assay on NCI/ADR-RES; > 100 µM (inactive) in the assay on OVCAR-5; > 100 µM (inactive) in the assay with M14; > 100 µM (inactive) with IGROV-1. In addition, the GI50 was 72.9 µM (inactive) in the assay on A549; 37.2 µM (inactive) in the assay with OVCAR-4; > 100 µM (inactive) in the assay on SK-MEL-28; > 100 µM (inactive) with MDA-MB-231; 70.3 µM (inactive) in the assay with KM12; 59.2 µM (inactive) with MCF7.

`Cc1cccc(=O)c([O-])c1.Cc1cccc(=O)c([O-])c1.[Bi+3].[Cl-]`: the GI50 in the assay with SK-OV-3 is 22.5 µM (inactive); in the assay with SK-MEL-2, 16.8 µM (inactive); in the assay on HL-60 it was 3 µM (inactive); in the assay on A498 it was 16.5 µM (inactive); in the assay on EKVX, 15.9 µM (inactive); in the assay with OVCAR-3 it was 2.74 µM (inactive). Further, the GI50 in the assay on RXF 393 is 8.39 µM (inactive); in the assay on NCI-H460, 4.32 µM (inactive); in the assay on RPMI-8226, 3.42 µM (inactive); in the assay on OVCAR-5, 14.9 µM (inactive); with M14 it was 7.55 µM (inactive); with IGROV-1, 12.3 µM (inactive). For the same compound, the GI50 in the assay with A549 is 12.9 µM (inactive); with OVCAR-4, 6.07 µM (inactive); with SK-MEL-28, 5.94 µM (inactive); in the assay with KM12 it was 11.6 µM (inactive).

Turning to `C[C@H]1C[C@H](C)c2ccccc2N(C)/C1=N\c1ccccc1`, the GI50 with SK-MEL-2 was 20.5 µM (inactive); with HL-60, 3.93 µM (inactive); with A498, 25.2 µM (inactive); in the assay with EKVX, 25.5 µM (inactive); in the assay on OVCAR-3, 28.1 µM (inactive); in the assay with RXF 393, 34.6 µM (inactive). Further, the GI50 is 15.8 µM (inactive) in the assay with NCI-H460; 36.7 µM (inactive) with RPMI-8226; 27.2 µM (inactive) in the assay on NCI/ADR-RES; 21.4 µM (inactive) in the assay on OVCAR-5; 21.5 µM (inactive) in the assay on M14; 21.9 µM (inactive) in the assay on IGROV-1. The GI50 with A549 is 34.7 µM (inactive); in the assay on OVCAR-4, > 100 µM (inactive); with SK-MEL-28, 28.1 µM (inactive); in the assay with MDA-MB-231, 14.8 µM (inactive); with KM12, 43.3 µM (inactive); with MCF7, 25.1 µM (inactive).

With `Cc1c(C(=O)C/C(=N/NC(=O)CC#N)C(N)=O)[n+]([O-])c2ccccc2[n+]1[O-]`, the GI50 is > 100 µM (inactive) in the assay with SK-OV-3; > 100 µM (inactive) in the assay with SK-MEL-2; 17.7 µM (inactive) with HL-60; > 100 µM (inactive) in the assay on A498; > 100 µM (inactive) in the assay with EKVX; 22.9 µM (inactive) in the assay with OVCAR-3. Moreover, the GI50 with RXF 393 was > 100 µM (inactive); with NCI-H460, 38.4 µM (inactive); in the assay on RPMI-8226, 33.9 µM (inactive); in the assay with OVCAR-5 it was > 100 µM (inactive); in the assay with M14 it was 34.5 µM (inactive); in the assay on IGROV-1, 20.5 µM (inactive). The GI50 in the assay on A549 is > 100 µM (inactive); in the assay with OVCAR-4, 32.7 µM (inactive); in the assay with SK-MEL-28, > 100 µM (inactive); in the assay on KM12 it was 28 µM (inactive).

As for `C[C@]12C/C(=C/O)C(=O)C(O)=C1CC[C@@H]1C2CC[C@@]2(C)C1CC[C@@H]2O` (some centres undefined), the GI50 was 27.5 µM (inactive) in the assay with SK-OV-3; 19.9 µM (inactive) in the assay with SK-MEL-2; 17.3 µM (inactive) in the assay with HL-60; 23.6 µM (inactive) in the assay on A498; 26.3 µM (inactive) in the assay with EKVX; 17.9 µM (inactive) with OVCAR-3. Further, the GI50 with RXF 393 is 20.7 µM (inactive); in the assay with NCI-H460, 21.8 µM (inactive); in the assay with RPMI-8226, 17.6 µM (inactive); with OVCAR-5 it was 21 µM (inactive); in the assay on M14 it was 17.9 µM (inactive); with IGROV-1 it was 21.7 µM (inactive). Besides, the GI50 in the assay with A549 is 57.8 µM (inactive); in the assay with OVCAR-4, 23.9 µM (inactive); in the assay with SK-MEL-28, 21.5 µM (inactive); in the assay with KM12, 25.6 µM (inactive).

As to `CC1(C)CC(=O)c2c(nc3c(ccc4ccccc43)c2-c2ccc(NC(=O)CCCCCCCCC(=O)Nc3ccc(-c4c5c(nc6c4ccc4ccccc46)CC(C)(C)CC5=O)cc3)cc2)C1`, the GI50 with SK-OV-3, in the assay with SK-MEL-2, with HL-60, in the assay on EKVX, with OVCAR-3 and in the assay on NCI-H460 was > 100 µM (inactive) each time. Moreover, the GI50 with RPMI-8226 was > 100 µM (inactive); with NCI/ADR-RES it was > 100 µM (inactive); in the assay with OVCAR-5, > 100 µM (inactive); with M14 it was > 100 µM (inactive); in the assay on IGROV-1, 0.017 µM (active); in the assay on A549 it was > 100 µM (inactive). Moreover, the GI50 in the assay on SK-MEL-28, in the assay on MDA-MB-231, in the assay on KM12 and in the assay on MCF7 was > 100 µM (inactive) in each case.
